Measurements reported in patent publication US20090281047A1, “Compositions And Methods For Immunotherapy” (priority 2008, published 2009).

What was measured:
[1] = system: varying malignancies including neuroendocrine cancer, nasal adenocarcinoma, brain stem tumor, thymoma, and histiocytoma; test: Treatment of dogs with varying malignancies (Example X); assay type: in vivo, dog; details: eight dogs; IV five days a week for three weeks, then 1 to 2 grams methacrylate coated para-hydroxyl-benzaldehyde-O-B-D-allopyranoside in food; some also acupuncture/alkaline water
Protocol: Eight dogs weighing between 60 and 80 pounds with varying malignancies including neuroendocrine cancer, nasal adenocarcinoma, brain stem tumor, thymoma, and histiocytoma were treated with 6 cc of the DMSO solution of Example II diluted in 200 cc saline administered intravenously five days a week for three weeks. The dogs were then given 1 to 2 grams of methacrylate coated para-hydroxyl-benzaldehyde-O-B-D-allopyranoside in their food seven days a week until they entered remission. Six of the dogs also received acupuncture and one received acupuncture and alkaline water.

[2] = system: breast cancer; test: Treatment of breast cancer patients (Example IX); assay type: in vivo, human
From the text: Forty-three of the patients in the study of Example VIII suffered from breast cancer. These forty-three were divided into four groups. One group of 7 was given the glycome solution of Example II; a group of five was given the glycome solution of Example II in combination with chemotherapy; a group of thirteen was given the glycome solution of Example II in combination with chemotherapy and Poly-MVA® (AMARC Enterprises, Inc., Spring Valley, Calif.) (blend of Palladium and alpha-lipoic Acid, Vitamins B1, B2 and B12, Formylmethionine, Acetyl Cystiene, and trace amounts of Molybdinum, Rhodium, and Ruthenium); and the remaining eighteen were given a combination of the glycome solution of Example II and Poly-MVA® (AMARC Enterprises, Inc., Spring Valley, Calif.) without chemotherapy. Patients receiving the glycome solution were given a solution containing three grams of the powder isolated in Example I a day intravenously for five days then six capsules containing a total of 3 g/day of para-hydroxyl-benzaldehyde-O-B-D-allopyranoside formulated according to Example IV and two capsules containing the formulation of Example V orally for two days, repeating for four weeks. They were then given six capsules containing a total of 3 g/day of para-hydroxyl-benzaldehyde-O-B-D-allopyranoside formulated according to Example IV and two capsules containing the formulation of Example V orally per day until they entered remission.

[3] = system: candadiasis; test: Treatment of candadiasis (Example XIV); assay type: in vivo, human; details: 25 individuals; 200 mg in 1 liter alkaline water pH 11 twice daily for three months
Protocol: (§1) 25 individuals with candadiasis were administered a solution comprising, 1 liter of Alkaline water prepared as described in Example XI and diluted with non-chlorinated drinking water to a pH of 11 mixed with 200 mg of columbianitin extracted from Lomatium Disectum, twice daily for three months.

[4] = system: Epstein Barr virus; test: Treatment of Epstein Barr (Example XIII); assay type: in vivo, human; details: thirty five individuals; 200 mg in 1 liter alkaline water pH 11 twice daily for three months
Protocol: as §1, with “Thirty five” for “25”, “Epstein Barr virus” for “candadiasis”

[5] = system: Methicillin Resistant Staphylococcus aureus (MRSA); test: Treatment of MRSA (Example XV); assay type: in vivo, human; details: three individuals; 200 mg in 1 liter alkaline water pH 11 twice daily for three months
Protocol: as §1, with “Three” for “25”, “suffering from MRSA” for “with candadiasis”

[6] = system: Lyme Disease; test: Treatment of Lyme Disease (Example XII); assay type: in vivo, human; details: five individuals; 200 mg in 1 liter alkaline water pH 11 twice daily for three months
Protocol: as §1, with “Five” for “25”, “positive for Lyme Disease” for “with candadiasis”, “comprising” for “comprising,”, “Disectum” for “Disectum,”

Compound | tumor response [1] | breast cancer patients survived for at least two years, overall ([2]; all forty-three breast cancer patients, all four treatment groups) | breast cancer patients survived ([2]; group of eighteen, combination with Poly-MVA without chemotherapy) | breast cancer patients survived ([2]; group of five, combination with chemotherapy) | skin infections at the end of three months [3] | vaginal infections at the end of three months [3] | Epstein Barr virus test at the end of three months [4] | clinical outcome at the end of three months [5] | Lyme disease test at the end of three months [6]
O=Cc1ccc(O[C@@H]2O[C@H](CO)[C@@H](O)[C@@H](O)[C@H]2O)cc1 [para-hydroxyl-benzaldehyde-O-B-D-allopyranoside] | significant reduction or elimination of the tumor | 79% | seventy-eight | 100% |  |  |  |  | 
CC(C)(O)[C@@H]1Cc2c(ccc3ccc(=O)oc23)O1 [columbianitin] |  |  |  |  | resolved | remained the same | all thirty-five individuals tested negative | all three individuals improved considerably | all five individuals tested negative
